Measured values from ChEMBL document CHEMBL1140806, “Optimization of the heterocyclic core of the quinazolinone-derived CXCR3 antagonists” (Bioorg Med Chem Lett, 2008).

Tested on: not listed separately
Assay: Mean residence time in rat at 0.5 mg/kg, iv
Format: ADME, organism-based
Parameters: dose 0.5 mg/kg, route intravenous
Settings: in vivo

Row | MRT | Structure (SMILES)
1 | 22.2 min | CCS(=O)(=O)CCN(C(=O)Cc1ccc(F)c(C(F)(F)F)c1)[C@H](C)c1nc2ncccc2cc1-c1ccc(C#N)cc1
2 | 21 min | CCS(=O)(=O)CCN(C(=O)Cc1ccc(F)c(C(F)(F)F)c1)[C@H](C)c1nc2c(c(=O)n1-c1ccc(C#N)cc1)CCCN2C
3 | 31.8 min | CCS(=O)(=O)CCN(C(=O)Cc1ccc(F)c(C(F)(F)F)c1)[C@H](C)c1nc2ncccc2c(=O)n1-c1ccc(C#N)cc1
4 | 90 min | CCS(=O)(=O)CCN(C(=O)Cc1ccc(F)c(C(F)(F)F)c1)[C@H](C)c1nc2ccccc2cc1-c1ccc(C#N)cc1
5 | 15.6 min | CCS(=O)(=O)CCN(C(=O)Cc1ccc(F)c(C(F)(F)F)c1)[C@H](C)c1nc2ccccn2c1-c1ccc(C#N)cc1
6 | 84 min | CCS(=O)(=O)CCN(C(=O)Cc1ccc(F)c(C(F)(F)F)c1)[C@H](C)c1nc2ccccn2c(=O)c1-c1ccc(C#N)cc1

Tested on: not listed separately
Assay: Clearance in rat at 0.5 mg/kg, iv
Format: ADME, organism-based
Parameters: dose 0.5 mg/kg, route intravenous
Settings: in vivo

Row | clearance | Structure (SMILES)
7 | 39.7 mL/min/kg | CCS(=O)(=O)CCN(C(=O)Cc1ccc(F)c(C(F)(F)F)c1)[C@H](C)c1nc2ncccc2cc1-c1ccc(C#N)cc1
8 | 63 mL/min/kg | CCS(=O)(=O)CCN(C(=O)Cc1ccc(F)c(C(F)(F)F)c1)[C@H](C)c1nc2c(c(=O)n1-c1ccc(C#N)cc1)CCCN2C
9 | 39.7 mL/min/kg | CCS(=O)(=O)CCN(C(=O)Cc1ccc(F)c(C(F)(F)F)c1)[C@H](C)c1nc2ncccc2c(=O)n1-c1ccc(C#N)cc1
10 | 42.2 mL/min/kg | CCS(=O)(=O)CCN(C(=O)Cc1ccc(F)c(C(F)(F)F)c1)[C@H](C)c1nc2ccccc2cc1-c1ccc(C#N)cc1
11 | 36.3 mL/min/kg | CCS(=O)(=O)CCN(C(=O)Cc1ccc(F)c(C(F)(F)F)c1)[C@H](C)c1nc2ccccn2c1-c1ccc(C#N)cc1
12 | 4 mL/min/kg | CCS(=O)(=O)CCN(C(=O)Cc1ccc(F)c(C(F)(F)F)c1)[C@H](C)c1nc2ccccn2c(=O)c1-c1ccc(C#N)cc1

Target: T1, C-X-C chemokine receptor type 3 (Homo sapiens, UniProt P49682)
T1 sequence (P49682 whole entry): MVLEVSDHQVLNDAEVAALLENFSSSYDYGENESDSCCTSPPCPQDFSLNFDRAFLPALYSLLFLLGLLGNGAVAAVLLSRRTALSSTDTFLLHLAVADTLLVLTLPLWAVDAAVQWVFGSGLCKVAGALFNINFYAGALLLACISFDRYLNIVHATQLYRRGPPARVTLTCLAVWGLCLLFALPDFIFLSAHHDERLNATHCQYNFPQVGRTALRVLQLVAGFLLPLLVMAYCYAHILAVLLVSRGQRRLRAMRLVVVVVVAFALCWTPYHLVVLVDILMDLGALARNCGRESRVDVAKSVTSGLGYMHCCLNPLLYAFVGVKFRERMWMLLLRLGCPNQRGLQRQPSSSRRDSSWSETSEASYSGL
Assay: Displacement of [125I]IP-10 from CXCR3 receptor expressed in human PBMC in RPMI-1640 buffer supplemented with 0.5% BSA
Settings: not given

Row | Structure (SMILES) | IC50 | Ki
13 | CCS(=O)(=O)CCN(C(=O)Cc1ccc(F)c(C(F)(F)F)c1)[C@H](C)c1nc2ncccc2cc1-c1ccc(C#N)cc1 | 2 nM | –
14 | CCS(=O)(=O)CCN(C(=O)Cc1ccc(F)c(C(F)(F)F)c1)[C@H](C)c1nc2c(c(=O)n1-c1ccc(C#N)cc1)CCCN2C | 4 nM | –
15 | CCS(=O)(=O)CCN(C(=O)Cc1ccc(F)c(C(F)(F)F)c1)[C@H](C)c1nc2ccccc2nc1-c1ccc(C#N)cc1 | 9 nM | –
16 | CCS(=O)(=O)CCN(C(=O)Cc1ccc(F)c(C(F)(F)F)c1)[C@H](C)c1nc2ccccc2cc1-c1ccc(C#N)cc1 | 0.8 nM | –
17 | CCS(=O)(=O)CCN(C(=O)Cc1ccc(F)c(C(F)(F)F)c1)[C@H](C)c1cc2ccccc2nc1-c1ccc(C#N)cc1 | 5 nM | –
18 | CCS(=O)(=O)CCN(C(=O)Cc1ccc(F)c(C(F)(F)F)c1)[C@H](C)c1nc2ccccc2n1-c1ccc(C#N)cc1 | 6 nM | –

Other lines, results leading:

Row | IC50 | Ki | Structure (SMILES)
19 | 18 nM | – | CCS(=O)(=O)CCN(C(=O)Cc1ccc(F)c(C(F)(F)F)c1)[C@H](C)c1nn2ccccc2c1-c1ccc(C#N)cc1
20 | – | 3 nM | CCS(=O)(=O)CCN(C(=O)Cc1ccc(F)c(C(F)(F)F)c1)[C@H](C)c1nc2ccccn2c1-c1ccc(C#N)cc1

Target: T1, C-X-C chemokine receptor type 3
Assay: Displacement of [125I]IP-10 from CXCR3 receptor expressed in human PBMC in EDTA-anti-coagulated human plasma
Settings: not given

Row | Structure (SMILES) | IC50
21 | CCS(=O)(=O)CCN(C(=O)Cc1ccc(F)c(C(F)(F)F)c1)[C@H](C)c1nc2ncccc2cc1-c1ccc(C#N)cc1 | 27 nM
22 | CCS(=O)(=O)CCN(C(=O)Cc1ccc(F)c(C(F)(F)F)c1)[C@H](C)c1nc2c(c(=O)n1-c1ccc(C#N)cc1)CCCN2C | 60 nM
23 | CCS(=O)(=O)CCN(C(=O)Cc1ccc(F)c(C(F)(F)F)c1)[C@H](C)c1nc2ccccc2nc1-c1ccc(C#N)cc1 | 121 nM
24 | CCS(=O)(=O)CCN(C(=O)Cc1ccc(F)c(C(F)(F)F)c1)[C@H](C)c1nc2ccccc2cc1-c1ccc(C#N)cc1 | 21 nM
25 | CCS(=O)(=O)CCN(C(=O)Cc1ccc(F)c(C(F)(F)F)c1)[C@H](C)c1cc2ccccc2nc1-c1ccc(C#N)cc1 | 115 nM
26 | CCS(=O)(=O)CCN(C(=O)Cc1ccc(F)c(C(F)(F)F)c1)[C@H](C)c1nc2ccccc2n1-c1ccc(C#N)cc1 | 35 nM

Other lines, results leading:

Row | IC50 | Structure (SMILES)
27 | 523 nM | CCS(=O)(=O)CCN(C(=O)Cc1ccc(F)c(C(F)(F)F)c1)[C@H](C)c1nn2ccccc2c1-c1ccc(C#N)cc1
28 | 79 nM | CCS(=O)(=O)CCN(C(=O)Cc1ccc(F)c(C(F)(F)F)c1)[C@H](C)c1nc2ncccn2c1-c1ccc(C#N)cc1
29 | 21 nM | CCS(=O)(=O)CCN(C(=O)Cc1ccc(F)c(C(F)(F)F)c1)[C@H](C)c1nc2ccccn2c1-c1ccc(C#N)cc1

Tested on: not listed separately
Assay: Oral bioavailability in rat at 2 mg/kg
Format: ADME, organism-based
Settings: in vivo

Row | bioavailability | Structure (SMILES)
30 | 31% | CCS(=O)(=O)CCN(C(=O)Cc1ccc(F)c(C(F)(F)F)c1)[C@H](C)c1nc2ncccc2cc1-c1ccc(C#N)cc1
31 | 47% | CCS(=O)(=O)CCN(C(=O)Cc1ccc(F)c(C(F)(F)F)c1)[C@H](C)c1nc2ncccc2c(=O)n1-c1ccc(C#N)cc1
32 | 17% | CCS(=O)(=O)CCN(C(=O)Cc1ccc(F)c(C(F)(F)F)c1)[C@H](C)c1nc2ccccc2cc1-c1ccc(C#N)cc1
33 | 24% | CCS(=O)(=O)CCN(C(=O)Cc1ccc(F)c(C(F)(F)F)c1)[C@H](C)c1nc2ccccn2c1-c1ccc(C#N)cc1
34 | 24% | CCS(=O)(=O)CCN(C(=O)Cc1ccc(F)c(C(F)(F)F)c1)[C@H](C)c1nc2ccccn2c(=O)c1-c1ccc(C#N)cc1
